Reference: patent US20080119515A1, “Heterocyclic Kinase Inhibitors: Methods of Use and Synthesis” (priority 2003, published 2008)
pIC50: −log10 of the molar value.

Molecular target: T1, ZAP-70 (Homo sapiens, UniProt P43403)
T1 sequence (P43403 1-619): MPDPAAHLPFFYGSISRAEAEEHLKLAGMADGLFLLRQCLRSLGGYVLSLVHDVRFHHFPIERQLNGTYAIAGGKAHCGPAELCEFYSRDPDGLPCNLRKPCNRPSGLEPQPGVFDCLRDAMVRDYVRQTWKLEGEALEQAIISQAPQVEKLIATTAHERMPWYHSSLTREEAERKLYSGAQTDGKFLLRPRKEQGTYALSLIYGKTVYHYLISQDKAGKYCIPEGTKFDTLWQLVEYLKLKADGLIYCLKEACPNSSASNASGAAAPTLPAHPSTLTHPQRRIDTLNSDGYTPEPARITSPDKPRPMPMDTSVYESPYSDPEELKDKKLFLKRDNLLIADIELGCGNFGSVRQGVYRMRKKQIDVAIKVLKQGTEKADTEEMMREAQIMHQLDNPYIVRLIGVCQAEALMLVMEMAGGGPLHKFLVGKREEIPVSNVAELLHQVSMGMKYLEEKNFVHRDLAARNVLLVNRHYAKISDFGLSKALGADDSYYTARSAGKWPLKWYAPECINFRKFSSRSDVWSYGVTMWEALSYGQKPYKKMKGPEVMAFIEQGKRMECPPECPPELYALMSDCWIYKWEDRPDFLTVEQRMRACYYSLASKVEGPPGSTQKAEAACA
Assay: DELFIA assay (ZAP-70 kinase, phosphorylation of biotinylated poly(glu,tyr))
Type: biochemical
Details: ZAP-70 DELFIA, class symbols; read-out: Activity (IC50 in vitro)
How it was run: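 3.1 nM ZAP-70 pre-incubated 10 min at room temperature with compound ([…]) and 62.5 nM biotinylated poly(glu,tyr) in 62.5 mM Mops pH 7.0, 12.5 mM MgCl2, 12.5% glycerol, 6.25% DMSO (pre-incubation concentrations); ATP added from 5 mM stock, 30 min reaction, EDTA stop. Phosphorylation read by DELFIA europium anti-phosphotyrosine fluorescence (340/615).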

Row | Compound | pIC50
1 | O=C(c1cc(NCc2ccc(C(F)(F)F)cc2)nc2ccc(-c3ccc(O)cc3)cc12)N1CCC[C@H]1CN1CCCC1 [Compound 419] | < 5.00
2 | COc1cc(C(=O)N2CCC[C@H]2CN2CCCC2)cc(NCc2ccccc2)n1 [Compound 7] | < 5.00
3 | O=C(c1cc(Nc2ccc3cn[nH]c3c2)nc2ccccc12)N1CCC[C@H]1CN1CCCC1 [Compound 10] | < 5.00
4 | O=C(c1cc(NCc2ccc(C(F)(F)F)cc2)nc2ccc(-c3cncc4ccccc34)cc12)N1CCC[C@H]1CN1CCCC1 [Compound 335] | < 5.00
5 | O=C(c1cc(Cl)nc(/C=C/c2ccccc2)c1)N1CCC[C@H]1CN1CCCC1 [Compound 115] | < 5.00
6 | N#Cc1ccc(-c2ccc3nc(N[C@@H]4CCc5ccccc54)cc(C(=O)N4CCC[C@H]4CN4CCCC4)c3c2)cc1 [Compound 182] | < 5.00
7 | C[C@H](Nc1cc(C(=O)N2CCC[C@H]2CN2CCCC2)c2cc(-c3ccc(C#N)cc3)ccc2n1)c1ccc(Br)cc1 [Compound 221] | < 5.00
8 | COc1ccc(C#Cc2ccc3nc(NCc4ccc(C(F)(F)F)cc4)cc(C(=O)N4CCC[C@H]4CN4CCCC4)c3c2)cc1 [Compound 282] | 5.00 to 6.00
9 | COc1ccc(CNc2cc(C(=O)N3CCC[C@H]3CN3CCCC3)c3cc(-c4ccc(C#N)cc4)ccc3n2)cc1 [Compound 152] | < 5.00
10 | N#Cc1ccc(-c2ccc3nc(NCCc4cccc(O)c4)cc(C(=O)N4CCC[C@H]4CN4CCCC4)c3c2)cc1 [Compound 320] | 5.00 to 6.00
11 | Nc1ccc(-c2ccc3nc(NCc4ccc(C(F)(F)F)cc4)cc(C(=O)N4CCC[C@H]4CN4CCCC4)c3c2)cc1 [Compound 424] | < 5.00
12 | N#Cc1ccc(-c2ccc3nc(NCc4ccc(C(F)(F)F)cc4)cc(C(=O)N4CCC[C@H]4CN4CCCC4)c3c2)cc1 [Compound 107] | > 6.00
13 | N#Cc1ccc(-c2ccc3nc(N4CCCC(c5ccc(C(F)(F)F)cc5)C4)cc(C(=O)N4CCC[C@H]4CN4CCCC4)c3c2)cc1 (stereo partly shown) [Compound 266] | < 5.00
14 | O=C(c1cc(NCc2ccc(C(F)(F)F)cc2)nc2ccc(C#Cc3ccc(Cl)cc3)cc12)N1CCC[C@H]1CN1CCCC1 [Compound 283] | > 6.00
15 | O=C(c1cc(NCc2ccc(C(F)(F)F)cc2)nc2ccc(-c3ccc(Cl)c(Cl)c3)cc12)N1CCC[C@H]1CN1CCCC1 [Compound 105] | > 6.00
16 | CC(C)(C)/C=C/c1ccc2nc(NCc3ccc(C(F)(F)F)cc3)cc(C(=O)N3CCC[C@H]3CN3CCCC3)c2c1 [Compound 422] | < 5.00

Row | Compound | pIC50
17 | O=C(Nc1ccc2cn[nH]c2c1)c1cc(NCc2ccc(C(F)(F)F)cc2)nc2ccc(-c3ccc4c(c3)OCO4)cc12 [Compound 87] | < 5.00
18 | C[C@H](c1cccc2ccccc12)N(C)c1cc(C(=O)N2CCC[C@H]2CN2CCCC2)c2cc(-c3ccc(C#N)cc3)ccc2n1 [Compound 218] | < 5.00
19 | O=C(Nc1ccc2[nH]ncc2c1)c1cc(NCc2ccccc2)nc2ccc(-c3ccc4c(c3)OCO4)cc12 [Compound 86] | 5.00 to 6.00
20 | O=C(c1cc(NCc2ccc(C(F)(F)F)cc2)nc2ccc(-c3nc(Cl)ns3)cc12)N1CCC[C@H]1CN1CCCC1 [Compound 341] | < 5.00
21 | O=C(c1cc(NCc2ccc(C(F)(F)F)cc2)nc2ccc(-c3cc(F)cc(F)c3)cc12)N1CCC[C@H]1CN1CCCC1 [Compound 108] | 5.00 to 6.00
22 | Cc1ccc(CNc2cc(C(=O)N3CCC[C@H]3CN3CCCC3)c3cc(-c4ccc(C#N)cc4)ccc3n2)c(C)c1 [Compound 224] | < 5.00
23 | O=C(c1cc(NCc2ccccc2)nc2ccc(-c3ccc4c(c3)OCO4)cc12)N1CCC[C@H]1CNCc1ccccc1 [Compound 21] | < 5.00
24 | CN(CCc1ccccc1)c1cc(C(=O)N2CCC[C@H]2CN2CCCC2)cc(/C=C/c2ccc(C(F)(F)F)cc2)n1 [Compound 366] | 5.00 to 6.00
25 | C[C@@H](c1ccccc1)N(C)c1cc(C(=O)N2CCC[C@H]2CN2CCCC2)c2cc(-c3ccc(C#N)cc3)ccc2n1 [Compound 199] | < 5.00
26 | O=C(c1cc(NCc2ccc(C(F)(F)F)cc2)nc2ccc(-c3ccc(Cl)cc3)cc12)N1CCC[C@H]1CN1CCCC1 [Compound 305] | > 6.00
27 | N#Cc1ccc(-c2ccc3nc(N4CCC(c5ccccc5)C4)cc(C(=O)N4CCC[C@H]4CN4CCCC4)c3c2)cc1 (stereo partly shown) [Compound 254] | < 5.00
28 | COC[C@H](Cc1ccccc1)Nc1cc(C(=O)N2CCC[C@H]2CN2CCCC2)c2cc(-c3ccc(C#N)cc3)ccc2n1 [Compound 185] | < 5.00
29 | N#Cc1ccc(-c2ccc3nc(NCc4ccccc4-c4ccccc4)cc(C(=O)N4CCC[C@H]4CN4CCCC4)c3c2)cc1 [Compound 251] | < 5.00
30 | O=C(c1cc(NCc2ccc(C(F)(F)F)cc2)nc2ccc(-c3cncnc3)cc12)N1CCC[C@H]1CN1CCCC1 [Compound 332] | < 5.00
31 | N#Cc1ccc(-c2ccc3nc(N(CCCO)Cc4ccccc4)cc(C(=O)N4CCC[C@H]4CN4CCCC4)c3c2)cc1 [Compound 213] | < 5.00
32 | O=C(c1cc(CCc2ccccc2)nc(CCc2ccccc2)c1)N1CCC[C@H]1CN1CCCC1 [Compound 274] | < 5.00

Results, then the compound that gave them:

Row | pIC50 | Compound
33 | > 6.00 | O=C(c1cc(CCCCc2ccccc2)nc2ccc(-c3ccc4c(c3)OCO4)cc12)N1CCC[C@H]1CN1CCCC1 [Compound 435]
34 | > 6.00 | O=C(c1cc(C#Cc2cccc(C(F)(F)F)c2)nc2ccc(-c3ccc4c(c3)OCO4)cc12)N1CCC[C@H]1CN1CCCC1 [Compound 404]
35 | < 5.00 | CN(C)C[C@@H]1CCCN1C(=O)c1cc(N(C)C)nc2ccc(-c3ccc4c(c3)OCO4)cc12 [Compound 20]
36 | < 5.00 | N#Cc1ccc(-c2ccc3nc(NCc4cccs4)cc(C(=O)N4CCC[C@H]4CN4CCCC4)c3c2)cc1 [Compound 270]
37 | > 6.00 | O=C(c1cc(CCCc2ccc(Cl)cc2)nc2ccc(-c3ccc4c(c3)OCO4)cc12)N1CCC[C@H]1CN1CCCC1 [Compound 406]
38 | 5.00 to 6.00 | O=C(c1cc(Cl)nc2ccc(-c3ccc4c(c3)OCO4)cc12)N1CCC[C@H]1CN1CCCC1 [Compound 1]
39 | < 5.00 | CC(=O)NCCNc1cc(C(=O)N2CCC[C@H]2CN2CCCC2)c2cc(-c3ccc4c(c3)OCO4)ccc2n1 [Compound 71]
40 | > 6.00 | O=C(c1cc(SCc2ccc(Cl)cc2)nc2ccc(-c3ccc4c(c3)OCO4)cc12)N1CCC[C@H]1CN1CCCC1 [Compound 326]
41 | 5.00 to 6.00 | N#Cc1ccc(-c2ccc3nc(/C=C/c4ccc(Cl)cc4)cc(C(=O)N4CCC[C@H]4CN4CCCC4)c3c2)cc1 [Compound 387]
42 | > 6.00 | O=C(c1cc(N(CCO)Cc2ccccc2)nc2ccc(-c3ccc4c(c3)OCO4)cc12)N1CCC[C@H]1CN1CCCC1 [Compound 76]
43 | > 6.00 | O=C(c1cc(N2CCc3ccccc3C2)nc2ccc(-c3ccc4c(c3)OCO4)cc12)N1CCC[C@H]1CN1CCCC1 [Compound 65]
44 | 5.00 to 6.00 | FC(F)(F)c1ccc(CNc2cc(N3CCC[C@H]3CN3CCCC3)nc3ccc(-c4ccc5c(c4)OCO5)cc23)cc1 [Compound 104]
45 | > 6.00 | O=C(c1cc(CCc2ccc(-c3ccccc3)cc2)nc2ccc(-c3ccc4c(c3)OCO4)cc12)N1CCC[C@H]1CN1CCCC1 [Compound 393]
46 | < 5.00 | N#Cc1ccc(-c2ccc3nc(NCc4cc(Cl)ccc4F)cc(C(=O)N4CCC[C@H]4CN4CCCC4)c3c2)cc1 [Compound 230]
47 | < 5.00 | COc1ccc(CCc2cc(C(=O)N3CCC[C@H]3CN3CCCC3)c3cc(-c4ccc5c(c4)OCO5)ccc3n2)cc1 [Compound 409]
48 | 5.00 to 6.00 | O=C(c1cc(CCc2ccc(Cl)cc2)nc2ccc(-c3ccc4c(c3)OCO4)cc12)N1CCC[C@H]1CN1CCCC1 [Compound 136]
49 | > 6.00 | CN(Cc1ccccc1)c1cc(C(=O)N2CCC[C@H]2CN2CCCC2)c2cc(-c3ccc4c(c3)OCO4)ccc2n1 [Compound 12]
50 | > 6.00 | O=C(c1cc(NCc2ccc(C(F)(F)F)cc2)nc2ccc(-c3ccc4c(c3)OCO4)cc12)N1CCC[C@H]1CN1CCCC1 [Compound 44]
51 | > 6.00 | O=C(c1cc(NCCc2ccccc2)nc2ccc(-c3ccc4c(c3)OCO4)cc12)N1CCC[C@H]1CN1CCCC1 [Compound 37]
52 | < 5.00 | Clc1cc(CN2CCC[C@H]2CN2CCCC2)c2cc(-c3ccc4c(c3)OCO4)ccc2n1 [Compound 93]
53 | < 5.00 | O=C(c1cc(N2CCC[C@H]2CO)nc2ccc(-c3ccc4c(c3)OCO4)cc12)N1CCC[C@H]1CN1CCCC1 [Compound 327]
54 | 5.00 to 6.00 | O=C(c1cc(CCc2ccccc2)nc2ccc(-c3ccc4c(c3)OCO4)cc12)N1CCC[C@H]1CN1CCCC1 [Compound 134]
55 | 5.00 to 6.00 | CN(CCC#N)c1cc(C(=O)N2CCC[C@H]2CN2CCCC2)c2cc(-c3ccc4c(c3)OCO4)ccc2n1 [Compound 66]
56 | 5.00 to 6.00 | O=C(c1cc(NC2Cc3ccccc3C2)nc2ccc(-c3ccc4c(c3)OCO4)cc12)N1CCC[C@H]1CN1CCCC1 [Compound 29]
57 | 5.00 to 6.00 | O=C(c1cc(/C=C/c2ccc(Cl)cc2)nc2ccc(-c3ccc4c(c3)OCO4)cc12)N1CCC[C@H]1CN1CCCC1 [Compound 132]
58 | 5.00 to 6.00 | N#Cc1ccc(-c2ccc3nc(NCc4ccc5c(c4)CCO5)cc(C(=O)N4CCC[C@H]4CN4CCCC4)c3c2)cc1 [Compound 318]
